In patent US20040023892A1, “Pharmaceutical composition based on a non-steroid anti-inflammatory agent” (priority 2002, published 2004):
Marks after values point to notes of the source that are not given here.

Experiments:
ambulatory patients [1] = assay: Clinical investigation of side effects of NAIA combinations with carbohydrates or sorbents
[2] = tested on: inflammatory swelling of paw of mice after introduction of carragenin; assay: Inflammatory swelling of paw of mice after introduction of carragenin; format: in vivo; conditions: dose mg/kg; for swelling of paw of mice after introduction of carragenine: Table 4, Control: NAIA alone; for Increase of Mass of Limb / Suppression of Swelling, % to Control: preparation alone, into stomach once a day 5 days, 3.5 hours after carragenin; for swelling of paw of mice after introduction of carragenin: the values are: increase of paw mass
Procedure: Tests were performed on breedless white mice-males with mass 22-24 g. The investigated preparations were introduced to animals through a probe into stomach once a day during five days in form of suspension on 1% starch mucous or aqueous solution.
In one hour after the last introduction of preparations, mice were injected with 0.05 ml of 1% of solution of carragenin in isotonic solution of sodium chloride, under aneurism of right rear paw. After 3.5 hours, on a peak of inflammation, they were killed by dislocation of a neck area of spine. Swollen and healthy paws were compared, and a degree of suppression of swelling was determined in test groups when compared with a control group in accordance with the formula:
Increase of mass of paw in control-increase of mass of paw in test ______ 100 increase of mass of paw in control.
Tests were performed on breedless white mice-males with mass 22-26 g.

breedless mice-male = assay: Acute toxicity of ASA (LD50) with carbohydrate or sorbent; format: in vivo; conditions: relative to LD50 of ASA alone
Procedure: Tests were conducted on breedless mice-male with mass 22-26 g. Acute toxicity of ASA was evaluated in accordance with the value LD50 (dose from which 50% of animals perish) of composition containing ACA plus carbohydrate or sorbent with ratio 4:1 when compared with LD50 ASA. Preparations were introduced one time intostomach in form of aqueous suspension with doses 350-3000 mg/kg to groups of six mice. Observations were conducted during 14 days. As a substance which has absorbing properties there were used activated carbon, white clay (caolin), aluminum hydroxide, magnium tricilicate, hydroxylapatite, microcrystaalline cellulose (MCC). As carbohydrates there were used monosaccarides-glucose and fructose, disaccaride-saccarose and lactose, and polysaccaride-potato starch. Results of experiments were processed in accordance with the method of Lichfield-Wilkoxon (Belensky, M. L. “Elements of quantitative evaluation of pharmacological effect,” second edition, redone and added, L, Medgiz, 1963, 152 p).
LD50 composition were counted on ASA (tables 7, 8).

ambulatory patients [3] = conditions: human, in vivo
[4] = 0.25 g with succinate of ammonium 0.1 g and activated carbon (0.35 g), two times a day 8 weeks

Row | Molecule | swelling of paw of mice after introduction of carragenine ([2]; N = 10) | Increase of Mass of Limb ([2]; n = 10) [mg] | Suppression of Swelling, % to Control ([2]; n = 10) | also measured
1 | CC(=O)Oc1ccccc1C(=O)O [ASA, acetyl salicylic acid] | 41.3* |  |  | better taking of mixture ASA and ammonium succinate (ambulatory patients [1]; [4]): Four from five; dyspeptic phenomena (ambulatory patients [1]; [4]): all 5 exhibited dyspeptic phenomena to a lesser degree; Increase of Toxicity In (breedless mice-male): 0
2 | CCCCC1C(=O)N(c2ccccc2)N(c2ccccc2)C1=O [BN, butadion] | 32.4* |  |  | 
3 | O=C(O)/C=C/C(=O)O [FUM, fumaric] |  | 59.3 ± 5.5 | −1.3 % to Control | 
4 | NCC(=O)O [GLy, glycin] |  | 63.0 ± 5.5 | +4.8 % to Control | 
5 | COc1ccc2c(c1)c(CC(=O)O)c(C)n2C(=O)c1ccc(Cl)cc1 [IM, indometatsin] | 19.0* |  |  | patients needing antyhistamine substances for reduction of allergenic phenomena (ambulatory patients [1]; 0.05 g with 0.25 g karsil, group which did not receive sorbent): one more patient needed antyhistamine substances; patients forced to stop taking preparation because of strong headaches in epigastric, vomiting (ambulatory patients [1]; 0.05 g with 0.25 g karsil, group which did not receive sorbent, after the third week): 1 patient; side effects of indometnacyne, in particular dispeptic phenomena, dizziness, headaches (ambulatory patients [1]; 0.05 g with 0.25 g karsil, together with microcrystalline cellulose 1:2, 5 weeks, versus without sorbent): to a lesser degree
6 | O=c1c(O)c(-c2ccc(O)c(O)c2)oc2cc(O)cc(O)c12 [KV, kvertsetin] |  | 58.7 ± 3.6 | −2.3 % to Control | 
7 | O=C(O)CCCCC1CCSS1 (stereo not drawn) [Lipoic acid LA, lipoic acid] |  | 62.3 | +3.7 % to Control | 
8 | O=C(O)c1cccnc1Nc1cccc(C(F)(F)F)c1 [NA, niflumic acid] | 31.1* |  |  | 
9 | COc1ccc2cc([C@H](C)C(=O)O)ccc2c1 [NP, naproxen] | 28.9* |  |  | 
10 | CN1C(C(=O)Nc2ccccn2)=C(O)c2ccccc2S1(=O)=O [PK, piroxikam] | 28.8* | 28.8 ± 4.9 | −52.0 % to Control | swelling of paw of mice after introduction of carragenin ([2]; Table 2, column Control: NAIA alone, N = 10): 28.8 mg; swelling of paw of mice after introduction of carragenin ([2]; Table 3, column Control: NAIA alone, n = 10): 28.8 mg; swelling of paw of mice after introduction of carragenin ([2]; Table 5, column Control: NAIA alone, N = 10): 28.8 mg
11 | N.N.O=C(O)CCC(=O)O [S-NH4, succinate of ammonium] |  | 63.5 ± 6.1 | +5.7 % to Control | 
12 | N[C@@H](CS)C(=O)O [TIS, tsistein] |  | 61.5 ± 6.4 | +2.3 % to Control | 
13 | O=C(O)Cc1ccccc1Nc1c(Cl)cccc1Cl [VL, voltaren] | 24.3* |  |  | 
14 | O=C([O-])Cc1ccccc1Nc1c(Cl)cccc1Cl.[Na+] [ortofen] |  |  |  | dispeptic phenomenon, headaches, dizziness (ambulatory patients [3]): less exhibited; taking of medication (ambulatory patients [3]): taking medication better
15 | Vitamin B6 [Vit B6] |  | 60.5 | +0.7 % to Control | 
16 | Vitamin E [Vit E] |  | 58.7 | −2.3 % to Control | 
